Data as given in US20240150303A1, “DIAMINOTRIAZINE COMPOUNDS” (BASF SE, priority 2021, published 2024).
Values joined by “and” are separate entries in the source; they are usually repeats but may differ in a detail not shown here. Equal values may be shown once.

Key:
Experiment in all cases: greenhouse pre-emergence herbicidal test
Assay type in all cases: in vivo
Lolium multiflorum = tested on: Lolium multiflorum
Description: (§1) The culture containers used were plastic flowerpots containing loamy sand with approximately 3.0% of humus as the substrate. The seeds of the test plants were sown separately for each species.
(§2) For the pre-emergence treatment, the active ingredients, which had been suspended or emulsified in water, were applied directly after sowing by means of finely distributing nozzles.
(§3) The containers were irrigated gently to promote germination and growth and subsequently covered with transparent plastic hoods until the plants had rooted. This cover caused uniform germination of the test plants, unless this had been impaired by the active ingredients.
(§4) Depending on the species, the plants were kept at 10-25° C. or 20-35° C., respectively.
(§5) The test period extended over 2 to 4 weeks. During this time, the plants were tended, and their response to the individual treatments was evaluated.
(§6) Evaluation was carried out using a scale from 0 to 100. 100 means no emergence of the plants, or complete destruction of at least the aerial moieties, and 0 means no damage, or normal course of growth. A moderate herbicidal activity is given at values of at least 60, a good herbicidal activity is given at values of at least 70, and a very good herbicidal activity is given at values of at least 85.
(§7) The plants used in the greenhouse experiments were of the following species: […]

Alopercurus myosuroides = tested on: Alopercurus myosuroides
Description: as §1, §2, §3, §4, §5, §6, §7

Setaria faberi = tested on: Setaria faberi
Description: (§8) The seeds of the test plants were sown separately for each species. For the pre-emergence treatment, the active ingredients, which had been suspended or emulsified in water, were applied directly after sowing by means of finely distributing nozzles. The containers were irrigated gently to promote germination and growth and subsequently covered with transparent plastic hoods until the plants had rooted. This cover caused uniform germination of the test plants, unless this had been impaired by the active ingredients. […] The test period extended over 2 to 4 weeks. During this time, the plants were tended, and their response to the individual treatments was evaluated. Evaluation was carried out using a scale from 0 to 100. 100 means no emergence of the plants, or complete destruction of at least the aerial moieties, and 0 means no damage, or normal course of growth. A moderate herbicidal activity is given at values of at least 60, a good herbicidal activity is given at values of at least 70, and a very good herbicidal activity is given at values of at least 85. The plants used in the greenhouse experiments were of the following species: [table]

Abutilon theophrasti = tested on: Abutilon theophrasti
Description: as §1, §2, §3, §4, §5, §6, §7

Digitaria sanguinalis = tested on: Digitaria sanguinalis
Description: as §1, §2, §3, §4, §5, §6, §7

Echinocloa crus-galli = tested on: Echinocloa crus-galli
Description: as §8

Amaranthus retroflexus = tested on: Amaranthus retroflexus
Description: as §8

Apera spica-venti = conditions: 31 g/ha
Description: as §1, §2, §3, §4, §5, §6, §7

`CCC(C)(F)c1nc(N)nc(Nc2c(C)c(Cl)cc(Cl)c2OC)n1` (racemic) [Example 102] gave a herbicidal activity (Lolium multiflorum; 62.5 g/ha) of 90%, a herbicidal activity (Alopercurus myosuroides; 62.5 g/ha) of 85% and a herbicidal activity (Setaria faberi; 62.5 g/ha) of 80%.
`COc1c(Cl)cc(Cl)c(C)c1Nc1nc(N)nc(C(C)(F)CCl)n1` (racemic) [Example 104] was tested, and the herbicidal activity (Lolium multiflorum; 62.5 g/ha) was 100%, the herbicidal activity (Alopercurus myosuroides; 62.5 g/ha) was 90% and the herbicidal activity (Setaria faberi; 62.5 g/ha) was 85%.
`COc1c(Cl)cc(Cl)c(Cl)c1Nc1nc(N)nc(C(C)(C)F)n1` [Example 2] gave a herbicidal activity (Abutilon theophrasti; 62.5 g/ha) of 100%, a herbicidal activity (Digitaria sanguinalis; 62.5 g/ha) of 100% and a herbicidal activity (Echinocloa crus-galli; 62.5 g/ha) of 100%. It also gave a herbicidal activity (Echinocloa crus-galli; 250 g/ha) of 100%, a herbicidal activity (Amaranthus retroflexus; 250 g/ha) of 100% and a herbicidal activity (Setaria faberi; 250 g/ha) of 100%.
With `COc1c(F)ccc(Br)c1Nc1nc(N)nc(C(C)(C)F)n1` [Example 3, N4-(6-bromo-3-fluoro-2-methoxy-phenyl)-6-(1-fluoro-1-methyl-ethyl)-1,3,5-triazine-2,4-diamine] the herbicidal activity (Abutilon theophrasti; 62.5 g/ha) was 100%, the herbicidal activity (Abutilon theophrasti; 250 g/ha) was 100% and the herbicidal activity (Digitaria sanguinalis; 62.5 g/ha) was 100%. It also gave a herbicidal activity (Echinocloa crus-galli; 62.5 g/ha) of 100%, a herbicidal activity (Amaranthus retroflexus; 250 g/ha) of 100% and a herbicidal activity (Setaria faberi; 250 g/ha) of 100%.
With `COc1c(Br)ccc(Cl)c1Nc1nc(N)nc(C(C)(C)F)n1` [Example 4] the herbicidal activity (Abutilon theophrasti; 62.5 g/ha) was 100%, the herbicidal activity (Digitaria sanguinalis; 62.5 g/ha) was 100% and the herbicidal activity (Echinocloa crus-galli; 62.5 g/ha) was 100%. For the same compound, the herbicidal activity (Echinocloa crus-galli; 250 g/ha) was 100%, the herbicidal activity (Amaranthus retroflexus; 250 g/ha) was 100% and the herbicidal activity (Setaria faberi; 250 g/ha) was 100%.
With `COc1c(F)cc(Br)c(C)c1Nc1nc(N)nc(C(C)(C)F)n1` [Example 5] the herbicidal activity (Abutilon theophrasti; 250 g/ha) was 90%, the herbicidal activity (Digitaria sanguinalis; 250 g/ha) was 100% and the herbicidal activity (Echinocloa crus-galli; 250 g/ha) was 100% and 85%. For the same compound, the herbicidal activity (Amaranthus retroflexus; 250 g/ha) was 100% and the herbicidal activity (Setaria faberi; 250 g/ha) was 100%.
`COc1c(F)cc(Cl)c(C)c1Nc1nc(N)nc(C(C)(C)F)n1` [Example 7] gave a herbicidal activity (Abutilon theophrasti; 32 g/ha) of 100%, a herbicidal activity (Abutilon theophrasti; 125 g/ha) of 100% and a herbicidal activity (Digitaria sanguinalis; 32 g/ha) of 100%. It also gave a herbicidal activity (Echinocloa crus-galli; 125 g/ha) of 100%, a herbicidal activity (Amaranthus retroflexus; 32 g/ha) of 100% and a herbicidal activity (Setaria faberi; 125 g/ha) of 100%.
In the case of `COc1c(F)cc(F)c(C)c1Nc1nc(N)nc(C(C)(C)F)n1` [Example 8], the herbicidal activity (Abutilon theophrasti; 32 g/ha) is reported as 100%, the herbicidal activity (Abutilon theophrasti; 125 g/ha) is reported as 100% and the herbicidal activity (Digitaria sanguinalis; 32 g/ha) is reported as 100%. It also gave a herbicidal activity (Echinocloa crus-galli; 125 g/ha) of 100%, a herbicidal activity (Amaranthus retroflexus; 32 g/ha) of 100% and a herbicidal activity (Setaria faberi; 125 g/ha) of 100%.
For `COc1c(Cl)cc(F)c(Cl)c1Nc1nc(N)nc(C(C)(C)F)n1` [Example 10], the herbicidal activity (Abutilon theophrasti; 32 g/ha) was 100%, the herbicidal activity (Abutilon theophrasti; 250 g/ha) was 100% and the herbicidal activity (Digitaria sanguinalis; 32 g/ha) was 100%. For the same compound, the herbicidal activity (Amaranthus retroflexus; 32 g/ha) was 100%, the herbicidal activity (Amaranthus retroflexus; 250 g/ha) was 100% and the herbicidal activity (Setaria faberi; 250 g/ha) was 100%.
With `COc1c(Cl)cc(F)c(Br)c1Nc1nc(N)nc(C(C)(C)F)n1` [Example 11] the herbicidal activity (Abutilon theophrasti; 32 g/ha) was 100%, the herbicidal activity (Alopercurus myosuroides; 250 g/ha) was 100% and the herbicidal activity (Digitaria sanguinalis; 32 g/ha) was 100%. The herbicidal activity (Echinocloa crus-galli; 250 g/ha) was 100%, the herbicidal activity (Amaranthus retroflexus; 32 g/ha) was 100% and the herbicidal activity (Setaria faberi; 250 g/ha) was 100%.
Compound `COc1c(Cl)cc(C)c(C)c1Nc1nc(N)nc(C(C)(C)F)n1` [Example 15] has a herbicidal activity (Lolium multiflorum; 31 g/ha) of 95%, a herbicidal activity (Alopercurus myosuroides; 31 g/ha) of 95% and a herbicidal activity (Alopercurus myosuroides; 125 g/ha) of 100%. The herbicidal activity (Echinocloa crus-galli; 125 g/ha) was 100%, the herbicidal activity (Setaria faberi; 31 g/ha) was 90% and the herbicidal activity (Setaria faberi; 125 g/ha) was 100%.
In the case of `CCOc1c(F)cc(F)c(Cl)c1Nc1nc(N)nc(C(C)(C)F)n1` [Example 24], the herbicidal activity (Apera spica-venti) is reported as 100%, the herbicidal activity (Echinocloa crus-galli; 62.5 g/ha) is reported as 100% and the herbicidal activity (Amaranthus retroflexus; 31 g/ha) is reported as 100%. The herbicidal activity (Amaranthus retroflexus; 62.5 g/ha) was 100% and the herbicidal activity (Setaria faberi; 62.5 g/ha) was 100%.
Work on `CCOc1c(Br)cc(F)c(Cl)c1Nc1nc(N)nc(C(C)(C)F)n1` [Example 30] yielded a herbicidal activity (Apera spica-venti) of 85%, a herbicidal activity (Abutilon theophrasti; 31 g/ha) of 100% and a herbicidal activity (Alopercurus myosuroides; 31 g/ha) of 100%. It also gave a herbicidal activity (Amaranthus retroflexus; 31 g/ha) of 85% and a herbicidal activity (Setaria faberi; 31 g/ha) of 100%.
